Test results: paper PMC10515483, “Structure–Reactivity Studies of 2-Sulfonylpyrimidines Allow Selective Protein Arylation” (Bioconjugate Chemistry, 2023)

Experiments:
[1] = target: T1, p53-Y220C DBD (Homo sapiens, UniProt P04637, M133L/N239Y/N268D/V203A/Y220C); experiment: Protein arylation by ESI mass spectrometry; assay type: binding
T1 construct: (residues 94-312); 6xHis/lipoyl domain/TEV protease cleavage site (N, cleaved yes); made in house; host or cells: E. coli C41
Procedure: In mass spectrometry experiments, we incubated 50 μM purified p53-Y220C DBD in KPi buffer at varying pH’s (6.0–8.0), temperatures (0 and 20 °C), and equivalents of 2-SPs (20–100). Representative 2-SPs were selected to span a broad reactivity range to determine whether trends observed in GSH in vitro assays translate to relative rates of modification of solvent exposed cysteines in folded proteins. […] The same could also be achieved with only 20 equiv of reagent by increasing the temperature to 20 °C, or raising the pH to 8.0. This is an important result because late-stage protein functionalization with bromo- and iodo-(hetero)aromatic motifs is challenging and inaccessible by metal-catalyzed arylation methodologies due to dehalogenation and/or off-target specificity. The introduction of an iodo-(hetero)aromatic motif on the protein surface facilitates drastically the crystal structure resolution with a sharp variation of density. […] Overall, we observed good correlation between GSH and protein experiments.
Figure 4 Biophysical and structural characterization of protein cysteine arylation by 2-SPs. […] Stoichiometry, reaction time/temperature, and pH are indicated in each case. X axis: m/z (Da). Y axis: normalized intensities as a percentage of the most intense peak. Middle: Structure of the modified Y220C mutant (green) superimposed onto the structure of the unmodified protein (gray, PDB entry 6SHZ)[40] showing the region around modified C182 (E) and C277 (F). Hydrogen bonds formed by the pyrimidine are highlighted as dashed yellow lines. 2Fo – Fc electron density maps are shown at a contour level of 1.3σ for segments of chain B including the modified residues C182 and C277. Bottom (F): Protein thermal stability (ΔTm, °C) of p53-Y220C, β-catenin ARD. and FGE, determined by DSF in the presence of 100 μM 2-SP derivatives. […]

[2] = Hydrolytic stability in KPi buffer without thiol (NMR); assay type: physicochemical; settings: for % degradation: over 12 hours, 50 mM KPi, footnote a: crashing out of solution, no degradation product; for hydrolysis in aqueous buffer (in words): buffer in the absence of GSH
Procedure: NMR studies: rate constant determination and hydrolytic stability. 850 µL of 50 mM Kpi buffer solution (pH 8.2 or 7), 20 µL of the appropriate pyrimidine stock s olution (100 mM in DMSO -d6), 20 µL of TMSP stock solution (22.2 mM in DI water), 30 µL DMSO -d6, and 80 µL of GSH stock solution (0.25 M in DI water, reactivity only) were successively added/mixed at room temperature, final pH 7.0 or 6.5 (Table S1). 600 µL of this freshly prepared solution was poured into an NMR tube and immediately […]
transferred to the NMR instrument for acquisition. 1H spectra (16 scans) were recorded every 10 minutes under water suppression conditions. Following acquisition, spectra were analysed using […]
order reaction rate constants (k’).

[3] = target: T2, FGE-C341S (Homo sapiens, UniProt Q8NBK3, C341S); experiment: Differential scanning fluorimetry (DSF); assay type: binding; settings: 100 μM compound; 10 µM FGE; read-out: Protein thermal stability ΔTm
T2 construct: His7 (C); made in house; host or cells: High Five insect cells (baculovirus, pAcGP67B-His7)
T2 sequence (Q8NBK3 34-374 C341S): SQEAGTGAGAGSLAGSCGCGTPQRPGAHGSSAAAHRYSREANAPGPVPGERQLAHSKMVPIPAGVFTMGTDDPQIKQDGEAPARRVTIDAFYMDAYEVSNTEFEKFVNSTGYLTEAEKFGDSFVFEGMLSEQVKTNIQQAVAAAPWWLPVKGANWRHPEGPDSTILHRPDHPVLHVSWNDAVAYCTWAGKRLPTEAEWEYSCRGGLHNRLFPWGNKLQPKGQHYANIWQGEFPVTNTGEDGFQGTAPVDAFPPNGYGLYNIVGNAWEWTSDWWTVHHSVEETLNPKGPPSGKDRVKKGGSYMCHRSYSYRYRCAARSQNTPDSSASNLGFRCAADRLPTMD
Text: (§1) We also probed the general effect of 2-SPs on protein stability by using differential scanning fluorimetry (DSF). […] Mutants of the 25 kDa DNA-binding domain of the tumor suppressor p53 are notorious for their reduced thermal stability and denaturation/aggregation propensity.[37] The 56 kDa armadillo domain (ARD) of β-catenin mediates canonical Wnt signaling and plays a central role in embryogenesis and tissue homeostasis.[38] FGE (37 kDa) is the only known activator of human sulfatases, and its stability is susceptible to modification of its cysteines.[39] […]
The cloning of human FGE-WT cDNA into baculoviral transfer vector pAcGP67B-His7 and the generation of the recombinant virus (in Sf9 cells) for expression of C-terminally His-tagged recombinant human FGE in High Five insect cells have been […]
were generated by site -directed PCR mutagenesis using pAcGP67B-FGE-WT-His7 as template and the […]
-3’. All expression plasmids were verified by sequencing of the entire coding region to exclude any undesired PCR -derived errors. The purification method was essentially performed as described in Peng et al., with one modification. The size exclusion […]
chromatography (His -trap) step foll owed directly by a second step purification using the ion -exchange column chromatography (Resource -Q). […]

[4] = target: T3, p53-Y220C (Homo sapiens, UniProt P04637, M133L/N239Y/N268D/V203A/Y220C); experiment: Differential scanning fluorimetry (DSF); assay type: binding; settings: 100 μM compound; 8 µM p53-Y220C; read-out: Protein thermal stability ΔTm
T3 construct: (residues 94-312); 6xHis/lipoyl domain/TEV protease cleavage site (N, cleaved yes); made in house; host or cells: E. coli C41
Text: as §1
described.7 Briefly, the N-terminal fusion protein (6xHis/lipoyl domain/TEV protease cleavage site) was overexpressed using E. coli C41 cells in 2xTY medium at 20°C for 16 h and purified using standard Ni-affinity chromatography protocols. […]
was further purified using a Heparin column. Finally, gel filtration chromatography was performed using a Superdex 75 16/60 preparative gel filtration column (GE Healthcare) in a 25 mM KPi (pH 7.2), 150 […]
mM NaCl, and 1 mM TCEP buffer. […]
gel electrophoresis and ESI-MS. […]

SMILES	% degradation ([2]; pH 7.0)	ΔTm at 100 µM [3]	ΔTm at 100 µM [4]	melting point	% degradation ([2]; pH 8.2)	hydrolysis in aqueous buffer (in words) [2]	protein arylation by ESI-MS (in words) ([1]; 100 equiv, 0 °C, pH 7.2)	time to selective double arylation ([1]; 100 equiv, 0 °C, pH 7.2)	protein modification by ESI-MS (in words) ([1]; 50 μM protein, all conditions tested, even after 4 h at 20 °C)
Cc1cc(C)nc(S(C)(=O)=O)n1 [4a]	< 5%	0 °C	0 °C						could not detect any protein modification
COc1ccnc(S(C)(=O)=O)n1 [4b]		0 °C	0.2 °C	60 °C					
Cc1ccnc(S(C)(=O)=O)n1 [4c]		-0.6 °C	-0.2 ± 0.1 °C		10%				
CS(=O)(=O)c1nccc(C(=O)O)n1 [4d]	< 5%	-0.4 ± 0.3 °C	0.2 °C	115 to 118 °C	< 5%				
CS(=O)(=O)c1nccc(-c2ccccc2)n1 [4e]	< 5%	-0.2 ± 0.3 °C	0.2 °C		50%				
COc1cc(OC)nc(S(C)(=O)=O)n1 [4f, 4,6-dimethoxy-2-methylsulfonylpyrimidine]		0 °C	-0.2 ± 0.1 °C						
CS(=O)(=O)c1nccc(N)n1 [4g]	5%	-0.4 ± 0.3 °C	-0.2 ± 0.1 °C	166 °C					
CS(=O)(=O)c1ncc(Br)c(C(=O)O)n1 [4i]		-0.6 °C	0.8 °C						
CS(=O)(=O)c1nccc(C(N)=O)n1 [4j]		-0.6 °C	-0.2 ± 0.1 °C						
COC(=O)c1ccnc(S(C)(=O)=O)n1 [4k]	77%	-0.4 ± 0.3 °C	0.4 °C	80 °C	100%				
CS(=O)(=O)c1nccc(C(F)(F)F)n1 [4l]	17%	-0.6 °C	1.8 °C	82 °C	65%	partial, slow hydrolysis			
CS(=O)(=O)c1ncc(-c2ccccc2)cn1 [4p]	78%	-0.2 ± 0.3 °C	0.2 °C	180 °C	78%				
CS(=O)(=O)c1ncccn1 [4q, 2-methylsulfonylpyrimidine]	< 5%	-0.6 °C	-0.2 ± 0.1 °C		< 5%				
CS(=O)(=O)c1ncc(Br)cn1 [4t]	< 5%	-0.4 ± 0.3 °C	0.4 °C		< 5%		completely selective double arylation	2.5 h	
CS(=O)(=O)c1ncc(I)cn1 [4u]	< 5%	-0.2 ± 0.3 °C	0.4 °C	56 °C	14%		completely selective double arylation		
CS(=O)(=O)c1ncc(C(=O)O)cn1 [4v]	18%	-0.4 ± 0.3 °C	3 °C	138 °C					
CS(=O)(=O)c1ncc(C(F)(F)F)cn1 [4x]	97%	-0.6 °C	0.8 °C		100%	partial, slow hydrolysis			

More lines, main results first:

% degradation ([2]; pH 7.0)	ΔTm at 100 µM [3]	ΔTm at 100 µM [4]	melting point	% degradation ([2]; pH 8.2)	hydrolysis in aqueous buffer (in words) [2]	protein arylation by ESI-MS (in words) ([1]; 100 equiv, 0 °C, pH 7.2)	time to selective double arylation ([1]; 100 equiv, 0 °C, pH 7.2)	SMILES	protein modification by ESI-MS (in words) ([1]; 50 μM protein, all conditions tested, even after 4 h at 20 °C)
< 5%	-0.2 ± 0.3 °C	0.2 °C	58 °C					CC(C)(C)S(=O)(=O)c1ncccn1 [5a]	
	-0.4 ± 0.3 °C	-0.2 ± 0.1 °C	200 to 201 °C					Nc1ccc(S(=O)(=O)c2ncccn2)cc1 [5b]	
	-0.4 ± 0.3 °C	0 °C						CCCCS(=O)(=O)c1ncccn1 [5c]	
12%	-0.4 ± 0.3 °C	0 °C		10%				O=S(=O)(c1ccccc1)c1ncccn1 [5d]	
100%	-0.6 °C	1.8 °C	91 to 92 °C	100%				O=S(=O)(CC(F)(F)F)c1ncccn1 [5e]	
100%	-0.4 ± 0.3 °C	0.4 °C	225 °C	100%				O=[N+]([O-])c1ccc(S(=O)(=O)c2ncccn2)cc1 [5f]	
	0 °C	0.2 °C		< 5%				O=S(=O)(NCc1ccccc1)c1ncccn1 [5g]	
100%	-0.2 ± 0.3 °C	0.4 °C		100%				O=S(=O)(Oc1c(F)c(F)c(F)c(F)c1F)c1ncccn1 [5h]	
